The values that follow come from patent US12540131B2 (Merck Sharp & Dohme LLC, priority 2019, dated 2026).

In the first test the target is GST tagged truncated human mutant G2019S LRRK2 (Homo sapiens (Human), UniProt Q5S007, G2019S). Put plainly: LRRK2 Km ATP LanthaScreen Assay. In kind it is biochemical. The settings on record: G2019S LRRK2, 134 μM ATP (Km ATP), mean values. In a few lines: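 Enzyme (GST-tagged, truncated) was preincubated with compound for 15 min at RT in 50 mM Tris pH 8.5, 10 mM MgCl2, 0.01% Brij-35, 1 mM EGTA, 2 mM DTT and 0.05 mM orthovanadate. Fluorescein-LRRKtide and 134 μM ATP (Km) were then added for 90 min. EDTA and Tb-anti-pERM antibody stopped the reaction; the TR-FRET 520/495 ratio gave 4-parameter IC50s, reported as mean pIC50.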
Chain of GST tagged truncated human mutant G2019S LRRK2 (Q5S007 970-2527 G2019S): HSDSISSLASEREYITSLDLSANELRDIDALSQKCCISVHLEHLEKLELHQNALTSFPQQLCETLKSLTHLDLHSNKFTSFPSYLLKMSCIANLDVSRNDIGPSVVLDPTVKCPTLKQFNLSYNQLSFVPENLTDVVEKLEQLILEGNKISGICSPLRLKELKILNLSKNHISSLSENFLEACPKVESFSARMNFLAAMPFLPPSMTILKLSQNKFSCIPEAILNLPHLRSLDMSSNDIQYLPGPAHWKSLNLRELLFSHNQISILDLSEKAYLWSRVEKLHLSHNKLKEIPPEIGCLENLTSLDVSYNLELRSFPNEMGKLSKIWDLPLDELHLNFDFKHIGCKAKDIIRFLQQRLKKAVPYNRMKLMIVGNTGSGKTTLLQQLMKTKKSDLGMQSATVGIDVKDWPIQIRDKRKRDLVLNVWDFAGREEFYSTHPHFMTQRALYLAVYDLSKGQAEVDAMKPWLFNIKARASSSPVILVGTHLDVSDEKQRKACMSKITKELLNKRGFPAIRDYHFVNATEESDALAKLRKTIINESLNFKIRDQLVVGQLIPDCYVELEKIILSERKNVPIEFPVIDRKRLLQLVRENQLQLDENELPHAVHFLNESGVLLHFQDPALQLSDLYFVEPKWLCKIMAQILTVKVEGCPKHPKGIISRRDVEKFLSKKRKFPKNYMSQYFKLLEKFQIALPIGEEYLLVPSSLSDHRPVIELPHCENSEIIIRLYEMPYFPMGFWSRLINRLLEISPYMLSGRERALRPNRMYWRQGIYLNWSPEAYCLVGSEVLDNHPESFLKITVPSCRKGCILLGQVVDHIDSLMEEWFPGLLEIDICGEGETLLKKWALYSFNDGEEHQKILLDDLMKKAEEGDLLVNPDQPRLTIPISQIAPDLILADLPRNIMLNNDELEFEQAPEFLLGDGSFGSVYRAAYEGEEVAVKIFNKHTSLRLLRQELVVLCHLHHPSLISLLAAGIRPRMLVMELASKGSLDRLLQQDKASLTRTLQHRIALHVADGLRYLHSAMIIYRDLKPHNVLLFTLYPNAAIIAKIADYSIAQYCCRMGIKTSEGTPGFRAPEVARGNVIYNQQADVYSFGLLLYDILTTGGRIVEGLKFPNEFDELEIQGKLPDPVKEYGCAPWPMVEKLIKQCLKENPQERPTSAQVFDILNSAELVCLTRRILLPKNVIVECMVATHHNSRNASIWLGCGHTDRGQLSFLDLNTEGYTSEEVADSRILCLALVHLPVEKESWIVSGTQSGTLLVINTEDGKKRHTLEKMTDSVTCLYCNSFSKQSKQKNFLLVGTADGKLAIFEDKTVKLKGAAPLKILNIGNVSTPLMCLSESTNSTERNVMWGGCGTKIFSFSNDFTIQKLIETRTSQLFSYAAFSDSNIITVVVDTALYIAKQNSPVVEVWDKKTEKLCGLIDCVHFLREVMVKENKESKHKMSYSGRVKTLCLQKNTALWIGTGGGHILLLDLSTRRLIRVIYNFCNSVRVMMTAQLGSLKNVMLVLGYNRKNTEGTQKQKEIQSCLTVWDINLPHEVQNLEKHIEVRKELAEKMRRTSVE
In the case of `O[C@@H]1COC[C@@H]1N1CC[C@H](c2cc3nc(Nc4cnn(C56CC(C5)C6)c4Cl)ncc3cc2Cl)[C@@H](F)C1` (single isomer, unassigned) [Ex-8.32, (3S,4S)(3S,4S) or (3S,4S)(3R,4R) or (3R,4R)(3S,4S) or (3R,4R)(3R,4R) 4-[4-(2-{[1-(bicyclo[1.1.1]pentan-1-yl)-5-chloro-1H-pyrazol-4-yl]amino}-6-chloroquinazolin-7-yl)-3-fluoropiperidin-1-yl]oxolan-3-ol], the “LRRK2 pIC50” value was 9.05.

Consider `Cc1cc2cnc(Nc3cnn(C45CC(C4)C5)c3Cl)nc2cc1[C@@H]1CCN([C@@H]2COC[C@@H]2O)C[C@H]1F` (single isomer, unassigned) [Ex-8.33, (3S,4S)(3S,4S) or (3S,4S)(3R,4R) or (3R,4R)(3S,4S) or (3R,4R)(3R,4R) 4-[4-(2-{[1-(bicyclo[1.1.1]pentan-1-yl)-5-chloro-1H-pyrazol-4-yl]amino}-6-methylquinazolin-7-yl)-3-fluoropiperidin-1-yl]oxolan-3-ol], for which the “LRRK2 pIC50” value is over 9.20.

For the compound `Cc1cc2cnc(Nc3cnn(C45CC(C4)C5)c3Cl)nc2cc1[C@@H]1CCN([C@H]2COC[C@H]2O)C[C@H]1F` (single isomer, unassigned) [Ex-8.34, (3S,4S)(3S,4S) or (3S,4S)(3R,4R) or (3R,4R)(3S,4S) or (3R,4R)(3R,4R) 4-[4-(2-{[1-(bicyclo[1.1.1]pentan-1-yl)-5-chloro-1H-pyrazol-4-yl]amino}-6-methylquinazolin-7-yl)-3-fluoropiperidin-1-yl]oxolan-3-ol], the “LRRK2 pIC50” value is listed as over 9.20.

Consider `Cc1cc2cnc(Nc3cnn(C45CC(C4)C5)c3Cl)nc2cc1[C@H]1CCN([C@@H]2COC[C@@H]2O)C[C@@H]1F` (single isomer, unassigned) [Ex-8.35, (3S,4S)(3S,4S) or (3S,4S)(3R,4R) or (3R,4R)(3S,4S) or (3R,4R)(3R,4R) 4-[4-(2-{[1-(bicyclo[1.1.1]pentan-1-yl)-5-chloro-1H-pyrazol-4-yl]amino}-6-methylquinazolin-7-yl)-3-fluoropiperidin-1-yl]oxolan-3-ol], for which the “LRRK2 pIC50” value is reported as 8.68.

For the compound `Cc1cc2cnc(Nc3cnn(C45CC(C4)C5)c3Cl)nc2cc1[C@H]1CCN([C@H]2COC[C@H]2O)C[C@@H]1F` (single isomer, unassigned) [Ex-8.36, (3S,4S)(3S,4S) or (3S,4S)(3R,4R) or (3R,4R)(3S,4S) or (3R,4R)(3R,4R) 4-[4-(2-{[1-(bicyclo[1.1.1]pentan-1-yl)-5-chloro-1H-pyrazol-4-yl]amino}-6-methylquinazolin-7-yl)-3-fluoropiperidin-1-yl]oxolan-3-ol], the “LRRK2 pIC50” value was determined as 8.38.

As to `O[C@H]1COC[C@H]1N1CC[C@H](c2cc3nc(Nc4cnn(C56CC(C5)C6)c4Cl)ncc3cc2Cl)[C@@H](F)C1` (single isomer, unassigned) [Ex-8.37, (3S,4S)(3S,4S) or (3S,4S)(3R,4R) or (3R,4R)(3S,4S) or (3R,4R)(3R,4R) 4-[4-(2-{[1-(bicyclo[1.1.1]pentan-1-yl)-5-chloro-1H-pyrazol-4-yl]amino}-6-chloroquinazolin-7-yl)-3-fluoropiperidin-1-yl]oxolan-3-ol], the “LRRK2 pIC50” value is over 9.20.

With `Cc1c(Nc2ncc3cc(C(F)(F)F)c(C4CCN([C@@]5(C)COC[C@H]5O)CC4)cc3n2)cnn1C1CC1` (single isomer, unassigned) [Ex-9.1, (3S,4S) or (3R,4R) 4-(4-(2-((1-cyclopropyl-5-methyl-1H-pyrazol-4-yl)amino)-6-(trifluoromethyl)quinazolin-7-yl)piperidin-1-yl)-4-methyltetrahydrofuran-3-ol], the “LRRK2 pIC50” value is 9.19.

As for `Cc1cc(Nc2ncc3cc(Cl)c(C4CCN(C)CC4F)cc3n2)sn1` (stereo in doubt) [Ex-4.52, (3S,4R) or (3R,4R) 6-chloro-7-(3-fluoro-1-methylpiperidin-4-yl)-N-(3-methyl-1,2-thiazol-5-yl)quinazolin-2-amine], the “LRRK2 pIC50” value was 9.06.

For the compound `CC1(O)CCC(c2cc3nc(Nc4cnn(C5CC5)c4Cl)ncc3cc2Cl)CC1` (stereo not drawn) [Ex-1.17, cis-or trans-4-(6-chloro-2-((5-chloro-1-cyclopropyl-1H-pyrazol-4-yl)amino)quinazolin-7-yl)-1-methylcyclohexan-1-ol], the “LRRK2 pIC50” value amounted to 8.58.

With `CC1(O)CCC(c2cc3nc(Nc4cnn(C5CC5)c4)ncc3cc2Cl)CC1` (stereo not drawn) [Ex-1.18, cis-or trans-4-(6-chloro-2-((1-cyclopropyl-1H-pyrazol-4-yl)amino)quinazolin-7-yl)-1-methylcyclohexan-1-ol], the “LRRK2 pIC50” value is 8.59.

Consider `COCC12CC(n3cc(Nc4ncc5cc(Cl)c(C6CCN(C7(C)COC7)CC6)cc5n4)cn3)(C1)C2` [Ex-2.3, 6-chloro-N-(1-(3-(methoxymethyl)bicyclo[1.1.1]pentan-1-yl)-1H-pyrazol-4-yl)-7-(1-(3-methyloxetan-3-yl)piperidin-4-yl)quinazolin-2-amine], for which the “LRRK2 pIC50” value was over 9.20.

Consider `COC(C)(C)Cn1ncc(Nc2ncc3cc(Cl)c(C4CCN(C5COC5)CC4)cc3n2)c1Cl` [Ex-2.10, 6-chloro-N-[5-chloro-1-(2-methoxy-2-methylpropyl)-1H-pyrazol-4-yl]-7-[1-(oxetan-3-yl)piperidin-4-yl]quinazolin-2-amine], for which the “LRRK2 pIC50” value was over 9.20.

With `CC(C)(Cn1ncc(Nc2ncc3cc(Cl)c(C4CCN(C5COC5)CC4)cc3n2)c1Cl)OC(F)F` [Ex-2.13, 6-chloro-N-{5-chloro-1-[2-(difluoromethoxy)-2-methylpropyl]-1H-pyrazol-4-yl}-7-[1-(oxetan-3-yl)piperidin-4-yl]quinazolin-2-amine], the “LRRK2 pIC50” value came to 9.15.

Take `COC(C)(C)Cn1ncc(Nc2ncc3cc(Cl)c(C4CCN(C5COC5)CC4)cc3n2)c1C` [Ex-2.14, 6-chloro-N-[1-(2-methoxy-2-methylpropyl)-5-methyl-1H-pyrazol-4-yl]-7-[1-(oxetan-3-yl)piperidin-4-yl]quinazolin-2-amine]: the “LRRK2 pIC50” value came to 9.17.

For `Cc1c(Nc2ncc3cc(Cl)c(C4CCN(C5COC5)CC4)cc3n2)cnn1CC1(C#N)CC1` [Ex-2.15, 1-{[4-({6-chloro-7-[1-(oxetan-3-yl)piperidin-4-yl]quinazolin-2-yl}amino)-5-methyl-1H-pyrazol-1-yl]methyl}cyclopropane-1-carbonitrile], the “LRRK2 pIC50” value is over 9.20.

As to `COC(C)(C)Cn1cc(Nc2ncc3cc(Cl)c(C4CCN(C5COC5)CC4)cc3n2)c(C)n1` [Ex-2.16, 6-chloro-N-[1-(2-methoxy-2-methylpropyl)-3-methyl-1H-pyrazol-4-yl]-7-[1-(oxetan-3-yl)piperidin-4-yl]quinazolin-2-amine], the “LRRK2 pIC50” value is 8.94.

The same test, now with this note: G2019S LRRK2, 134 μM ATP (Km ATP), mean values; read-out: LRRK2 pIC50 (converted).
On to `Cn1nc(Cl)cc1Nc1ncc2cc(Cl)c(C3CCN([C@@]4(C)COC[C@H]4O)CC3)cc2n1` (single isomer, unassigned) [Ex-10.1, (3S,4S) or (3R,4R) 4-(4-(6-chloro-2-((3-chloro-1-methyl-1H-pyrazol-5-yl)amino)quinazolin-7-yl)piperidin-1-yl)-4-methyltetrahydrofuran-3-ol], for which the IC50 was 0.776 nM.

With `Cc1cc2cnc(Nc3cnn(C4CC4(F)F)c3Cl)nc2cc1C1CCN([C@@H]2COC[C@@H]2O)CC1` (stereo in doubt) [Ex-2.34, 4-[4-(2-{[5-chloro-1-(2,2-difluorocyclopropyl)-1H-pyrazol-4-yl]amino}-6-methylquinazolin-7-yl)piperidin-1-yl]oxolan-3-ol], the IC50 was under 0.631 nM.
